Target: ABLE
Assay: Fluorescence anisotropy ligand competition on ABLE (displacement of apixaban-peg-FITC)
Type: binding
Procedure: We performed fluorescence anisotropy experiments (54, 55) of ABLE and LABLE using a FITC fluorophore conjugated to apixaban as the fluorescent probe (FIGS. 512A-512D and Scheme 1). We serially diluted a concentrated protein solution containing 25 nM Apx-peg-FITC, holding constant the concentration of Apx-peg-FITC. Parallel and perpendicularly polarized emission at 528 nm (10 nm slit width, 510 nm long pass filter) were integrated for 10 seconds after 485 nm (5 nm slit width) excitation of the FITC fluorophore of Apx-peg-FITC. The data were fit to a single-site binding model (Equation 2, with N=1) (FIG. S12B). We performed ligand competition experiments (54, 55) by adding aliquots of a concentrated ligand stock in DMSO into an approximately 50% bound complex of protein and Apx-peg-FITC (25 nM). The decrease in anisotropy as a function of competing ligand was fit to a competitive binding model (54, 55) (FIG. 4D and FIG. S12C and FIG. S12D). Because effects of DMSO on the anisotropy of bound ABLE/Apx-peg-FITC complex become more pronounced at high concentrations of DMSO (>4%), we fit only the initial data points at low DMSO concentration (% DMSO <2%, FIG. 4D). […] DMSO may have a minor effect on competitive binding with weaker competitors (i.e., apixabanCOO^− and rivaroxaban), where high concentrations of competitor are needed to decrease anisotropy. As such, the reported dissociation constants of these weaker competitors can be viewed as a lower limit to the KD. Fluorescence polarization competition with apixaban as competitor gives a KD of 7 (±1) μM for the apixaban/ABLE complex (FIG. 4D), which agrees with that of the more precise spectral titration [KD=5 (±1) μM]. Binding experiments were performed at least twice to confirm reproducibility, and the reported errors correspond to the uncertainty in the fit parameters.

SMILES | Kd (ABLE 20 μM, apixaban-peg-FITC 25 nM, 50 mM NaPi, 100 mM NaCl, pH 7.4, fit of initial points at DMSO <2%, KD of weaker competitors viewed as lower limit, read-out: KD of competing ligand for ABLE, competitive binding model) [µM] | fold tighter binding to ABLE than rivaroxaban (fluorescence polarization competition, FIG. 4D) [fold] | binding to ABLE (in words) (competition with apixaban-peg-FITC)
COc1ccc(-n2nc(C(N)=O)c3c2C(=O)N(c2ccc(N4CCCCC4=O)cc2)CC3)cc1 [apixaban] | 7 | 20 | –
O=C(NC[C@H]1CN(c2ccc(N3CCOCC3=O)cc2)C(=O)O1)c1ccc(Cl)s1 [rivaroxaban] | – | – | only very weak binding

Reference: patent US20230253066A1, “DESIGNED PROTEINS FOR LIGAND BINDING” (The Regents of the University of California, priority 2020, published 2023)
